Results: patent US8124654B2, “Derivatives of hypoestoxide and related compounds” (Immune Modulation, Inc., priority 2008, dated 2012)

Key:
[1] = test system: P. berghei berghei (EI strain); assay: In vivo effect in malaria-infected mice (blood parasitemia); details: female mice, 5 mg/Kg oral once daily for 3 days; Giemsa-stained blood smears
Protocol: Five female mice per group were infected i.p. with 1×10^5P. berghei berghei (EI strain) parasitized RBCs and 3 days later, oral therapy was started at 5 mg/Kg once daily with either Formula IV or Chloroquine for 3 days. […], blood parasitemia was evaluated on each mouse on Giemsa-stained smears.

[2] = test system: P. falciparum CQ-Resistant (W2 MR4); assay: In vitro malaria parasite development, 3H-hypoxanthine uptake, CQ-resistant strain; type: cell-based; details: for IC50: 48 h exposure from ring stage, 3H-hypoxanthine uptake, geometric mean
Protocol: (§1) Parasite cultures were exposed to different concentrations of Formula IV or hypoestoxide (from 100× stocks in DMSO) for 48 h, beginning at the ring stage. Concentrations yielding 50% inhibition (IC50) were extrapolated from plots of mean percent negative control activity over inhibitor concentration as measured by the uptake of ^3H-hypoxanthine. Data was analyzed after logarithmic transformation and expressed as the geometric mean IC50 and 95% confidence intervals.
(§2) Other anti-parasitic agents such as sesquiterpene artemisinin, chloroquine, mixtures thereof, and the like, can also be administered in appropriate doses along with the compounds of formula I-IV.

[3] = test system: P. falciparum CQ-Sensitive (3D7); assay: In vitro malaria parasite development, 3H-hypoxanthine uptake, CQ-sensitive strain; type: cell-based; details: for IC50: 48 h exposure from ring stage, 3H-hypoxanthine uptake, geometric mean
Protocol: as §1, §2

[4] = test system: B16F1 melanocytes; assay: Inhibition of lung colonization of B16F1 melanocytes in mice; type: in vivo, C57BL/6 Mice; details: 5 mg/Kg oral once daily for 10 days; lungs counted on day 16; versus vehicle control
Protocol: 1×10^5 melanoma cells were injected intravenously into the lateral tail vein of each of 30 mice. Before treatment, mice were randomized into six groups of 5 mice per group. Treatment began one hour after intravenous inoculation of the tumor cells. Drugs, at 5 mg/Kg were administered via oral route, once daily for 10 days. Treatment was stopped on day 10. On day 16, lungs were removed and fixed in 10% formaldehyde. The surface melanoma colonies were counted for each lung and the means were established for each group. The mean for each group was used to calculate % inhibition based on the vehicle control.

[5] = test system: IL-12 production; assay: Inhibition of IL-12 production; type: cell-based
[6] = test system: TNF-α production; assay: Inhibition of TNF-α production; type: cell-based
[7] = test system: IL-1β production; assay: Inhibition of IL-1β production; type: cell-based
[8] = test system: IL-6 production; assay: IL-6 production in LPS-stimulated human peripheral blood macrophages (ELISA); type: cell-based
Source text: At the end of 24-hour culture, supernatants were removed and tested for the presence of IL-6 by enzymne-linked immunosorbent assay.

[9] = ratio of IC50 versus hypoestoxide

Molecule | Reduction of Parasitemia (%) [1] | IC50 [2] | times more active than the parent hypoestoxide against the CQ-resistant strain [2, 9] | IC50 [3] | times more active than hypoestoxide against the CQ-sensitive strain [3, 9] | Inhibition (%) of lung melanoma colonies [4] | inhibition of IL-12 production (in words) [5] | inhibition of TNF-α production (in words) [6] | inhibition of IL-1β production (in words) [7] | Inhibition (%) of IL-6 production ([8]; 10 μM, LPS 3 μg/ml, 24 h) | IL-6 ([8]; 10 μM, LPS 3 μg/ml, 24 h culture supernatant, LPS alone 1200 pg/ml) | inhibition of IL-6 (in words) ([8]; statement of the summary, no conditions given)
CCN(CC)CCCC(C)Nc1ccnc2cc(Cl)ccc12 (stereo not shown) [Chloroquine] | 96% | – | – | – | – | – | – | – | – | – | – | –
12,18-dihydrohypoestoxide [Formula IV] | 92% | 0.12 µM | 88 times | 1.4 µM | about 7 times | 65% | – | – | – | – | – | –
C=C1C(=O)C[C@H]2C[C@@H]3O[C@@]3(C)CC[C@@H]3O[C@@]3(C)C[C@@H](OC(C)=O)[C@H]1C2(C)C [Hypoestoxide, hypoestoxide] | – | 10.6 µM | – | 10 µM | – | 70% | inhibits | inhibits | inhibits | 96% | 50 pg/mL | inhibits
